Results reported in patent publication US20160297763A1, “Heteroaryl hydroxamic acid derivatives and their use in the treatment, amelioration or prevention of a viral disease” (priority 2011, published 2016).
Where a name gives a salt, the structure may show the parent alone.

tested on: influenza A virus A/Aichi/2/68 (H3N2); test: Cytopathic effect (CPE) assay H3N2; type: cell-based, influenza A virus (H3N2) on MDCK cells; conditions: not given
Description: A possible measure of the […] antiviral activity of the compounds having the formula I or II is the CPE assay disclosed herein. […] In this connection, the reduction in the virus-mediated cytopathic effect (CPE) upon treatment with the compounds was calculated as follows: The cell viability of infected-treated and uninfected-treated cells was determined using an ATP-based cell viability assay (Promega). The response in relative luminescent units (RLU) of infected-untreated samples was subtracted from the response (RLU) of the infected-treated samples and then normalized to the viability of the corresponding uninfected sample resulting in % CPE reduction.
The influenza A virus (IAV) was obtained from American Tissue Culture Collection (A/Aichi/2/68 (H3N2); VR-547). Virus stocks were prepared by propagation of virus on Mardin-Darby canine kidney (MDCK; ATCC CCL-34) cells and infectious titres of virus stocks were determined by the 50% tissue culture infective dose (TCID50) analysis as described in Reed, L. J., and H. Muench. 1938, Am. J. Hyg. 27:493-497.
MDCK cells were seeded in 96-well plates at 2×10^4 cells/well using DMEM/Ham's F-12 (1:1) medium containing 10% foetal bovine serum (FBS), 2 mM L-glutamine and 1 antibiotics (all from PAA). Until infection the cells were incubated for 5 hrs at 37° C., 5.0 CO2 to form a ˜80% confluent monolayer on the bottom of the well. Each test compound was dissolved in DMSO and generally tested at 25 μM and 250 μM. In those cases where the compounds were not soluble at that concentration they were tested at the highest soluble concentration. The compounds were diluted in infection medium (DMEM/Ham's F-12 (1:1) containing 5 μg/ml trypsin, and 1% antibiotics) for a final plate well DMSO concentration of 1%. The virus stock was diluted in infection medium (DMEM/Ham's F-12 (1:1) containing 5 μg/ml Trypsin, 1% DMSO, and 1% antibiotics) to a theoretical multiplicity of infection (MOI) of 0.05.
After removal of the culture medium and one washing step with PBS, virus and compound were added together to the cells. In the wells used for cytotoxicity determination (i.e. in the absence of viral infection), no virus suspension was added. Instead, infection medium was added. Each treatment was conducted in two replicates. After incubation at 37° C., 5% CO2 for 48 hrs, each well was observed microscopically for apparent cytotoxicity, precipitate formation, or other notable abnormalities. Then, cell viability was determined using CellTiter-Glo luminescent cell viability assay (Promega). The supernatant was removed carefully and 65 μl of the reconstituted reagent were added to each well and incubated with gentle shaking for 15 min at room temperature. Then, 60 μl of the solution was transferred to an opaque plate and luminescence (RLU) was measured using Synergy HT plate reader (Biotek).
Relative cell viability values of uninfected-treated versus uninfected-untreated cells were used to evaluate cytotoxicity of the compounds. Substances with a relative viability below 80% at the tested concentration were regarded as cytotoxic and retested at lower concentrations.
Reduction in the virus-mediated cytopathic effect (CPE) upon treatment with the compounds was calculated as follows: The response (RLU) of infected-untreated samples was subtracted from the response (RLU) of the infected-treated samples and then normalized to the viability of the corresponding uninfected sample resulting in % CPE reduction.

| SMILES | CPE H3N2 (insoluble): solubility in the assay |
| --- | --- |
| Cc1c(Cc2ccc(Cl)cc2)sc2nc(N)[nH]c(=O)c12 [SAV-7609] | reduction (%) insoluble |

same assay, conditions: Influenza A virus, H3N2, activity conc 1 (μM per method); read-out: CPE H3N2 reduction (%)

| SMILES | inhibition at 1 µM [%] |
| --- | --- |
| O=C(c1cc(C2=CCCCC2)ccn1)N(O)Cc1ccccc1 [drawing 257] | 3.4 |
| O=C(c1cc(-c2ccccc2)ccn1)N(O)Cc1ccc(F)cc1 [drawing 223] | -3.2 |
| CCONC(=O)c1cc(NCc2cccc(OCc3ccccc3)c2)ccn1 | 1.2 |

same assay, conditions: Influenza A virus, H3N2, activity conc 2 (μM per method); read-out: CPE H3N2 reduction (%)

| SMILES | inhibition at 2 µM [%] |
| --- | --- |
| CC(C)(C)OC(=O)N1C=C(c2ccnc(C(=O)N(O)Cc3ccccc3)c2)CCC1 | 3.9 |
| O=C(c1cc(N2CCCCC2)ccn1)N(O)CCCc1ccccc1 [drawing 203] | 7.7 |
| COC1=CC=C(c2ccnc(C(=O)N(O)Cc3ccccc3)c2)CC1 | -2.5 |
| CC(C)(C)OC(=O)N1C2C=C(c3ccnc(C(=O)N(O)Cc4ccccc4)c3)CC1CC2 (stereo not shown) | -5.3 |

same assay, conditions: Influenza A virus, H3N2, activity conc 5 (μM per method); read-out: CPE H3N2 reduction (%)

| SMILES | inhibition at 5 µM [%] |
| --- | --- |
| O=C(c1cc(N2CCCCC2)ccn1)N(O)Cc1ccccc1 [drawing 183] | 1.1 |
| CC(C)(C)OC(=O)N1CCC=C(c2ccnc(C(=O)N(O)Cc3ccccc3)c2)C1 [drawing 256] | 10.2 |
| CNC(=O)c1cccc(-c2ccnc(C(=O)N(O)Cc3ccccc3)c2)c1 | -7.5 |
| NC(=O)c1cccc(-c2ccnc(C(=O)N(O)Cc3ccccc3)c2)c1 [drawing 221] | -2.7 |
| O=C(NO)c1cc(-c2ccc(Cl)cc2)ccn1 | 26.6 |
| Cc1c(-c2ccccc2)sc2nc(NC3CCCCC3)[nH]c(=O)c12 [SAV-7640] | -3.2 |
| O=C(NO)c1cc(NCc2ccccc2)ccn1 | -0.5 |
| O=C(c1ccc(N2CCCCC2)cn1)N(O)Cc1ccccc1 [drawing 208] | -3.4 |
| O=C(c1cc2ccccc2cn1)N(Cc1ccccc1)OCc1ccccc1 [drawing 179] | 1.3 |

same assay, conditions: Influenza A virus, H3N2, activity conc 12 (μM per method); read-out: CPE H3N2 reduction (%)

| SMILES | inhibition at 12 µM [%] |
| --- | --- |
| O=C(c1ccc(-c2ccccc2)cn1)N(O)Cc1ccccc1 [drawing 215] | 13.4 |

same assay, conditions: Influenza A virus, H3N2, activity conc 20 (μM per method); read-out: CPE H3N2 reduction (%)

| SMILES | inhibition at 20 µM [%] |
| --- | --- |
| O=C(c1cc2ccccc2cn1)N(O)CCc1ccccc1 [drawing 202] | -1.8 |
| CC(C)(C)OC(=O)N1CCC(c2ccnc(C(=O)N(O)Cc3ccccc3)c2)CC1 | 31.3 |
| O=C(c1cc(N2CCC(F)(F)C2)ccn1)N(O)Cc1ccccc1 | 4.6 |

same assay, conditions: Influenza A virus, H3N2, activity conc 50 (μM per method); read-out: CPE H3N2 reduction (%)

| SMILES | inhibition at 50 µM [%] |
| --- | --- |
| CCONC(=O)c1ccc2c(=O)n(C)c(=O)n(C)c2n1 | -0.4 |
| CCONC(=O)c1cc(N)ccn1 | 10.5 |
| CN(C)CCNC(=O)c1cccc(-c2ccnc(C(=O)N(O)Cc3ccccc3)c2)c1 [drawing 230] | 8.9 |
| O=C(c1cc(C2=CC3CCC(C2)N3)ccn1)N(O)Cc1ccccc1 (stereo not shown) [drawing 283] | 5.49 |
| O=C(c1cc(N2CCC(N3CCCCC3)CC2)ccn1)N(O)Cc1ccccc1 | 18.8 |
| O=C(c1cc(NS(=O)(=O)c2ccccc2)ccn1)N(O)Cc1ccccc1 [drawing 213] | -5.2 |
| O=C(NOC(=O)c1cc(N2CCCCC2)ccn1)c1cc(N2CCCCC2)ccn1 [drawing 160] | 29 |
| CN(C)C1CCN(c2ccnc(C(=O)N(O)Cc3ccccc3)c2)CC1 | 12.3 |
| CCONC(=O)c1cc(NCC2CCN(Cc3ccccc3)CC2)ccn1 | 14.8 |
| CN(O)C(=O)c1cc(N2CCOCC2)ccn1 | 5.7 |
| COc1ccc2nc(C(=O)NOCc3ccccc3)ccc2c1 | -1.9 |
| O=C(NO)c1cc(NS(=O)(=O)Cc2ccc(Cl)c(Cl)c2)ccn1 | 53.4 |
| O=C(c1cc(N2CCC(N3CCCC3)CC2)ccn1)N(O)Cc1ccccc1 [drawing 226] | 10.7 |
| O=C(NO)c1cc(NS(=O)(=O)Cc2ccccc2F)ccn1 | -0.5 |
| CN(OCc1ccccc1)C(=O)c1ccc(-c2ccccc2)cn1 | -2.6 |
| O=C(c1cc(NS(=O)(=O)Cc2cccc(C(F)(F)F)c2)ccn1)N(O)Cc1ccccc1 | 22.4 |
| O=C(NO)c1cc(NS(=O)(=O)Cc2cccc(C(F)(F)F)c2)ccn1 | -5.6 |
| O=C(NO)c1cc(NS(=O)(=O)Cc2ccc(F)cc2)ccn1 | -1.4 |
| C[C@@H]1CN(c2ccnc(C(=O)N(O)Cc3ccccc3)c2)C[C@H](C)O1 [drawing 218] | 10.5 |
| O=C(NO)c1cc(NS(=O)(=O)Cc2cccc3cccnc23)ccn1 | 24.4 |
| CN1CCN(c2ccnc(C(=O)N(C)O)c2)CC1 | 2.6 |
| Nc1ccccc1NC(=O)c1ccc(C(=O)NO)nc1 | -5.53 |
| O=C(NO)c1ccccn1 | 3.15 |
| CC(C)(C)OC(=O)N1CCN(c2ccnc(C(=O)N(O)Cc3ccccc3)c2)CC1 | 34 |
| CCON(C)C(=O)c1cccc(C)n1 | -1.9 |
| CCONC(=O)c1ccccn1 | 12.5 |

same assay, conditions: Influenza A virus, H3N2, read-out: CPE H3N2 reduction (%), activity conc 50 (μM per method)

| SMILES | inhibition at 50 µM [%] |
| --- | --- |
| O=C(NO)c1cc(NS(=O)(=O)Cc2ccc(Cl)cc2Cl)ccn1 | 60.1 |
| CCONC(=O)c1cc(N2CCOCC2)ccn1 | 1.3 |

same assay, conditions: Influenza A virus, H3N2; read-out: CPE H3N2 IC50

| SMILES | IC50 [µM] |
| --- | --- |
| O=C(NOC(=O)c1cc(N2CCCCC2)ccn1)c1cc(N2CCCCC2)ccn1 [drawing 160] | 37 |
| O=C(NO)c1cc(NS(=O)(=O)Cc2cccc3cccnc23)ccn1 | 78 |

same assay, conditions: activity conc 50 (μM per method)

| SMILES | CPE H3N2 reduction (%) |
| --- | --- |
| Cl.O=C(NO)c1cc(NS(=O)(=O)Cc2cccc(Cl)c2)ccn1 [drawing 288] | 2.29 |
| Cl.O=C(NO)c1cc(NS(=O)(=O)Cc2cccc(Cl)c2)ccn1 [drawing 267] | 5.9 |
| O=C(c1cc(N2CCOCC2)ccn1)N(O)Cc1ccccc1 [drawing 241] | −3.4 |

tested on: not given; test: not given; conditions: not given

| SMILES | melting point |
| --- | --- |
| Cc1c(-c2ccccc2)sc2nc(NCCN)[nH]c(=O)c12 | 192 to 194 °C |
| Cl.O=C(NO)c1cc(NS(=O)(=O)Cc2cccc3cccnc23)ccn1 | 220 to 228 °C |
| Cc1c(-c2ccc(Cl)c(O)c2)sc2nc(N)[nH]c(=O)c12 | > 350 °C |
| O=C(NO)c1ccc(N2CCCC2)cn1 | 220 to 225 °C |
| O=C(c1cc(N2CCCC(F)(F)C2)ccn1)N(O)Cc1ccccc1 | 140 to 145 °C |
| Nc1nc2sc(-c3ccccc3)c(Cl)c2c(=O)[nH]1 | > 350 °C |
| Cc1c(-c2ccccc2)sc2nc(N)[nH]c(=O)c12 | 356 to 358 °C |
| CN1CC=C(c2ccnc(C(=O)N(O)Cc3ccccc3)c2)CC1 | 135 to 155 °C |
| Cl.O=C(NO)c1cc(NS(=O)(=O)Cc2cccc(Cl)c2Cl)ccn1 | 210 to 218 °C |
| O=C(c1cc(C2=CCNCC2)ccn1)N(O)Cc1ccccc1 (as salt: hydrochloride) | 140 to 150 °C |
| Cc1c(-c2ccccc2)sc2nc(NCCN(C)C)[nH]c(=O)c12 | 199 to 201 °C |
| CCONC(=O)c1ccc(-c2cccc(CN(C)Cc3ccccc3)c2)cn1.Cl (hydrate or solvate) | 85 to 90 °C |
| Cc1c(-c2cc(C#N)ccc2F)sc2nc(N)[nH]c(=O)c12 | 332 to 336 °C |
| Cl.O=C(NO)c1cc(NS(=O)(=O)Cc2ccccc2Cl)ccn1 | 215 to 220 °C |
| O=C(NOC(=O)c1cc(N2CCCCC2)ccn1)c1cc(N2CCCCC2)ccn1 | 210 to 215 °C |
| Cc1sc2nc(N)[nH]c(=O)c2c1-c1ccc(F)cc1 | 360 to 362 °C |
| O=C(NO)c1cc(N2CCOCC2)ccn1 | 215 to 220 °C (dec.) |
| Cc1c(-c2cc(C(F)(F)F)cc(C(F)(F)F)c2)sc2nc(N)[nH]c(=O)c12 | 344 to 347 °C |
| Cc1c(-c2ccccc2)sc2nc(NC3CCCCC3)[nH]c(=O)c12 | 265 to 270 °C |
| COc1cc(-c2sc3nc(N)[nH]c(=O)c3c2C)ccc1Cl | 312 to 322 °C |
| Cc1c(-c2ccccc2)sc2nc(NCCN3CCOCC3)[nH]c(=O)c12 | 240 to 246 °C |
| Cc1c(-c2cccc(C#N)c2F)sc2nc(N)[nH]c(=O)c12 | 350 to 370 °C |
